This is an account of results in patent publication EP3785697A1, “COSMETIC COMPOSITIONS COMPRISING PIPERLONGUMINE” (Unilever N.V., priority 2019, dated 2021).

One data set in a line: in vitro. The note with it: human, oral keratinocytes.
For data set [1] the following is noted: 25°C; cited from earlier work.
The test system of another data set is IL-6. The experiment in a line: Human immune cell line THP-1 in vitro assay, IL-6 measured by ELISA in supernatant. The class given is cell-based. A general note: In an ELISA, binding on a coated surface is turned into a signal by an enzyme label.
The nature of data set [2]: Human oral keratinocytes (HOK) in vitro assay, cell viability by cell counting kit-8. The note with it: human, oral keratinocytes, Cell viability (%), Table 3, Piperlongumine 15 µM, HOKs treated with heat killed P.gingivalis, Control 100. In general terms: Tetrazolium assays rely on reduction of a dye to a coloured formazan, in cell work by metabolically active cells.
Method: (§1) HOKs (Passage 4-6) were seeded in 96 well-plates at the density of 2 x 10^4 cells / well overnight. On the experimental day the cells were treated with heat killed P.gingivalis and single concentration or a combination of piperlongumine and L-cystine at different doses. After 24 hours, cell viability was measured with cell counting kit-8.
In data set [3] the test system is Human oral keratinocytes (HOK). Described as above. The note with it: Table 3; Piperlongumine 15 µM, HOKs treated with heat killed P.gingivalis, 24 hours; Control 100; 1440 min, 15 µM.
Method: as §1
The nature of data set [4]: Human immune cell line THP-1 in vitro assay, cell viability. The settings on record: thp-1 cells, Cell viability (%).
Method: (§2) In this assay, the concentration of IL-6 (Interleukin-6) and the % cell viability are measured. Widening of therapeutic window is indicated by the concentration of Interleukin-6 (IL-6) as measured on the Human Immune cell Line using the THP-1 invitro assay in pg/ml and the % cell viability of THP-1 cells.
(§3) Cells were differentiated in 24-well plates at the density of 5 x 10^5 cells / well with 100 nM PMA for 72 hours. Cells were then co-treated with E.coli lipopolysaccharides (LPS) and single concentration or a combination of piperlongumine and L-cystine at different doses. After 24 hours, the supernatants were collected for measurement of interleukin (IL)-6 as a pro-inflammatory biomarker using enzyme-linked immunosorbent assay (ELISA).
The test system of the next data set is THP-1 cells. The settings on record: human, 24 h, 100 µM.

Converted amounts (≈) assume the structure as drawn.

Method for IL-6: as §2, §3
Method for THP-1 cells: as §2, §3

Broadly, the viability is a read-out of living cells in per cent, often relative to untreated cells. As to `N[C@@H](CSSC[C@H](N)C(=O)O)C(=O)O` [L-cystine], in “in vitro”, the viability at 24 h, 50 µM was 102% and the viability at 24 h, 100 µM amounted to 109%. In data set [1], the Solubility in water was 112 µg/mL (≈ 466 µM). In the data set with IL-6 (Table 1, L-cystine 100 µM, co-treated with E.coli LPS, 24 hours, Control 98, LPS alone 2252), the “Concentration of IL-6” value stood at 1896 pg/mL.

Consider `COc1cc(/C=C/C(=O)N2CCC=CC2=O)cc(OC)c1OC` [Piperlongumine, 5,6-dihydro-1-[(2E)-1-oxo-3-(3,4,5-trimethoxyphenyl)-2-propenyl]-2(1 H)-pyridinone], for which the “Concentration of IL-6” value in the data set on IL-6 (Table 1, Piperlongumine 5 µM, co-treated with E.coli LPS, 24 hours, Control 98, LPS alone 2252) is 103 pg/mL; with IL-6 (Table 1, Piperlongumine 10 µM, co-treated with E.coli LPS, 24 hours, Control 98, LPS alone 2252), 117 pg/mL; with IL-6 (Table 2, Piperlongumine 10 µM, Control 122, LPS alone 3953) it was 91 pg/mL. Further, the viability at 24 h, 15 µM in data set [2] was 63.4%. In addition, in data set [3], the “Cell viability (%)” value is 63.38%. The viability at 24 h, 5 µM in data set [4] (Table 1, Piperlongumine 5 µM, co-treated with E.coli LPS, 24 hours, Control 100, LPS alone 91) was determined as 100%. Besides, the viability at 24 h, 10 µM came out at 74% in data set [4] (Table 1, Piperlongumine 10 µM, co-treated with E.coli LPS, 24 hours, Control 100, LPS alone 91) and 39% in data set [4] (Table 2, Piperlongumine 10 µM, Control 100, LPS alone 86).

For Vitamin E [reference compound], in the data set on THP-1 cells, the “Cell viability (%)” value amounted to 73%. Besides, the “Concentration of IL-6” value in the data set with IL-6 (Table 2, Vitamin E 100 µM, Control 122, LPS alone 3953) was determined as 2998 pg/mL.
